This is an account of results in ChEMBL document CHEMBL3044865, “Herbicidal Activity and Characteristics of Pyraflufen-ethyl for Controlling Broad-leaved Weeds in Cereals” (J Pestic Sci, 2002).

Active and inactive are the calls of the source. No cut-off for these calls is given here.

Series [1] relates to Alopecurus myosuroides. The series is described as follows: Herbicidal activity against Alopecurus myosuroides assessed as killing at 1 g/ha post emergence application measured after 21 days after treatment. It is filed as functional, organism-based.
Series [2] relates to Veronica hederifolia. The experiment in a line: Herbicidal activity against Veronica hederaefolia assessed as killing at 0.3 g/ha post emergence application measured after 21 days after treatment. It counts as functional.
Series [3] has as its target T1, Protoporphyrinogen oxidase 2 (Spinacia oleracea) (UniProt Q94IG7).
T1 sequence (whole entry): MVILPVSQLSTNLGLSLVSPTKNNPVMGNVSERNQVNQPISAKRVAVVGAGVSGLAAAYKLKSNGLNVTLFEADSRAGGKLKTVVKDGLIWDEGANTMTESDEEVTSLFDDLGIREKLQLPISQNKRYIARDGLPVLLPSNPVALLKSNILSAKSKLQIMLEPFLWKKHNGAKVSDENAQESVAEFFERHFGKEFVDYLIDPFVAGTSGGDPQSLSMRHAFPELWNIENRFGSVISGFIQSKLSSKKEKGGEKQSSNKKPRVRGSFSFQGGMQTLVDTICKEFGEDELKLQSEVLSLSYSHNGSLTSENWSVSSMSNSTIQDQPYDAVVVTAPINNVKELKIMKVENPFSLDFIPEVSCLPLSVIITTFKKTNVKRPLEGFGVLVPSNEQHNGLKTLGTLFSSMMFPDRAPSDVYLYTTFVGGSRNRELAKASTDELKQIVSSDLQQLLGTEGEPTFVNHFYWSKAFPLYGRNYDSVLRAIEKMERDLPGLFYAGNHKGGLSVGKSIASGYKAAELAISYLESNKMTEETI
The experiment in a line: Inhibition of Stellaria media protoporphyinogen oxidase assessed as herbicidal activity at 0.3 g/ha measured after 21 days after treatment under greenhouse by time-course analysis. Details: scale not given: the % may be the effect or the level left.

The test system of series [4] is Stellaria media. The experiment in a line: Herbicidal activity against Stellaria media assessed as killing at 3 g/ha post emergence application measured after 21 days after treatment. It is filed as functional.
Series [5] concerns Galium aparine. The series is described as follows: Herbicidal activity against Galium aparine assessed as killing at 12 g/ha measured after 21 days after treatment by time-course analysis. It counts as functional.
Series [6] has as its system Stellaria media. The experiment in a line: Herbicidal activity against Stellaria media assessed as killing at 10 g/ha post emergence application measured after 21 days after treatment. It is filed as functional.
Series [7] has as its system Viola arvensis. The experiment in a line: Herbicidal activity against Viola arvensis assessed as killing at 300 g/ha post emergence application measured after 21 days after treatment. It counts as functional.
Series [8] has as its system Alopecurus myosuroides. The series is described as follows: Herbicidal activity against Alopecurus myosuroides assessed as killing at 10 g/ha pre emergence application measured after 21 days after treatment. It is filed as functional, organism-based.
For series [9], the system named is Galium aparine. The experiment in a line: Herbicidal activity against Galium aparine assessed as killing at 10 g/ha post emergence application measured after 21 days after treatment. It is filed as functional.
The subject of series [10] is Hordeum vulgare. The series is described as follows: Phytotoxicity in Hordeum vulgare (barley) assessed as injury at 300 g/ha pre emergence application measured after 21 days after treatment. It counts as organism-based. The note with it: in vivo, other, 504 h.
Series [11] has as its system Hordeum vulgare. The series is described as follows: Phytotoxicity in Hordeum vulgare (barley) assessed as injury at 0.3 g/ha post emergence application measured after 21 days after treatment. It counts as organism-based. The note with it: in vivo, other, 504 h.
In series [12] the test system is Hordeum vulgare. The series is described as follows: Phytotoxicity in Hordeum vulgare (barley) assessed as injury at 10 g/ha pre emergence application measured after 21 days after treatment. The note with it: in vivo, other, 504 h. It is filed as organism-based.
The test system of series [13] is Veronica hederifolia. The series is described as follows: Herbicidal activity against Veronica hederaefolia assessed as killing at 100 g/ha post emergence application measured after 21 days after treatment. It is filed as functional.
The subject of series [14] is Galium aparine. The series is described as follows: Herbicidal activity against Galium aparine assessed as killing at 10 g/ha pre emergence application measured after 21 days after treatment. It is filed as functional.
A further series deals with Triticum aestivum. The series is described as follows: Phytotoxicity in Triticum aestivum (wheat) assessed as injury at 300 g/ha pre emergence application measured after 21 days after treatment. It counts as organism-based. The note with it: in vivo, other, 504 h.
For series [15], the system named is Alopecurus myosuroides. The experiment in a line: Herbicidal activity against Alopecurus myosuroides assessed as killing at 3 g/ha post emergence application measured after 21 days after treatment. It is filed as functional.
The test system of series [16] is Viola arvensis. The series is described as follows: Herbicidal activity against Viola arvensis assessed as killing at 1 g/ha post emergence application measured after 21 days after treatment. It counts as functional.
Series [17] has as its system Stellaria media. The experiment in a line: Herbicidal activity against Stellaria media assessed as killing at 1 g/ha post emergence application measured after 21 days after treatment. It is filed as functional.

For `CCOC(=O)COc1cc(-c2nn(C)c(OC(F)F)c2Cl)c(F)cc1Cl` [PYRAFLUFEN-ETHYL], the result with Alopecurus myosuroides [1] and in the series with Alopecurus myosuroides [8] was inactive. Further, the Activity with Veronica hederifolia [2] is 40%; in series [3] it was more than 90%; with Stellaria media [4] it was 100%; in the series with Galium aparine [5], more than 90%; in the series on Stellaria media [6], 100%; with Viola arvensis [7] it was 50%. The Activity is given as 100% with Galium aparine [9]; 21% in the series on Hordeum vulgare [10]; “Non-toxic” with Hordeum vulgare [11]; “Non-toxic” in the series on Hordeum vulgare [12]; 21% in the series on Veronica hederifolia [13]; 11% in the series with Galium aparine [14]. Besides, the Activity in the series with Triticum aestivum amounted to 11%; with Alopecurus myosuroides [15] it was 1%; in the series with Viola arvensis [16] it was 80%; in the series with Stellaria media [17], 100%.
